Measured values reported in PubChem BioAssay (NCI).
Several values for one entry are separate records, joined by “and”; a condition that tells them apart may be missing. Equal values may be shown once.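 How tested: cells in 96-well plates exposed to compound for 48 hours at five concentrations. Here, GI50 denotes the concentration required for 50% inhibition of growth. TGI is the concentration that stops growth completely.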

Experiments:
Test in all cases: growth of human tumour cells (NCI), 48 h
[1] = system: HS 578T breast
[2] = system: SK-MEL-5 melanoma
[3] = system: OVCAR-3 ovarian
[4] = system: NCI/ADR-RES ovarian
[5] = system: UO-31 renal
[6] = system: RPMI-8226 leukemia
[7] = system: A549 NSCLC
[8] = system: ACHN renal
[9] = system: SF-539 CNS
[10] = system: SK-MEL-2 melanoma

| SMILES | TGI [1] | TGI [2] | TGI [3] | TGI [4] | TGI [5] | TGI [6] | TGI [7] | TGI [8] | TGI [9] | TGI [10] | GI50 [1] | GI50 [4] | GI50 [8] |
| --- | --- | --- | --- | --- | --- | --- | --- | --- | --- | --- | --- | --- | --- |
| CC(=O)O[C@H]1C#C/C=C\C#CC[C@@H]2C(=O)N(C(=O)OC(C)(C)C)[C@@H]12 | > 88.7 µM | > 100 µM | 98.3 µM | 74.7 µM | 31.2 µM | > 75.8 µM | > 100 µM | 28.8 µM | 18.5 µM | > 93 µM |  |  |  |
| Cc1cccc(C(C)(C)C)c1NC(=O)/C(Cc1nc2ccc([N+](=O)[O-])cc2[nH]c1=O)=N/NC(=O)C[N+](C)(C)C | > 100 µM | > 100 µM | > 100 µM | > 100 µM | > 100 µM | > 100 µM | > 100 µM | > 100 µM | > 100 µM | > 100 µM |  |  |  |
| Cc1cc(S(=O)(=O)Nc2nnc3c(C(F)(F)F)cc(Cl)cn23)c(S)cc1Cl | > 100 µM | > 100 µM | > 100 µM | > 100 µM | > 100 µM | > 100 µM | > 100 µM | > 100 µM | > 100 µM | > 100 µM |  |  |  |
| CC1(O)C=CC2CCC1C2O (stereo not given) |  | > 100 µM | > 100 µM |  | > 100 µM | 53.5 µM | > 100 µM | > 100 µM | > 100 µM | > 100 µM |  |  |  |
| Cc1ccc(S(=O)(=O)n2cncc2CO)cc1 | > 100 µM | > 100 µM | > 100 µM | > 100 µM | > 100 µM | > 100 µM | > 100 µM | > 100 µM | > 100 µM | > 100 µM |  |  |  |
| COc1cc2cc(C(=O)N3CC(CCl)c4c3cc(N)c3ccccc43)[nH]c2cc1OCCN(C)C (stereo not given) | 0.125 µM |  | 0.0209 µM | 0.175 µM | < 0.005 µM | 0.408 µM | 6 µM |  |  | 0.00726 µM |  |  |  |
| C/C(=N\NC(N)=O)C(CN1CCCCC1)C(c1ccccc1)c1c(O)c2ccccc2oc1=O (stereo not given) | > 100 µM | > 100 µM | > 100 µM | > 100 µM | > 100 µM | > 100 µM | > 100 µM | > 100 µM | > 100 µM | > 100 µM | 79.4 µM | > 100 µM |  |
| CC(=O)/C=C/C=C(\C)CC/C=C(\C)CC(C)C | > 100 µM | 35.5 µM | 78.7 µM |  | > 100 µM | 38.4 µM | > 100 µM | > 100 µM | 46.8 µM | 42.3 µM |  |  |  |
| CCOC(=O)C(C)(C)Oc1ccc2c(=O)cc(-c3ccccc3)oc2c1 |  | 28.2 µM | 39 µM |  | > 100 µM | 37.8 µM | 59 µM | > 100 µM | 38.2 µM | 31.5 µM |  |  |  |
| Cc1cc(Cc2c(F)c(F)c(Cc3cc(C)no3)c(F)c2F)on1 | > 100 µM | > 100 µM | > 100 µM | > 100 µM | > 100 µM | > 100 µM | 25.8 µM | > 100 µM | > 100 µM | > 100 µM |  |  |  |
| Cc1ccc2nc3c(C)c(Cl)c(=O)cc-3sc2c1 | 71.7 µM | 29.7 µM | > 100 µM |  | 67.4 µM | > 52.3 µM | 98.2 µM | 87.3 µM | 62.3 µM | 37.5 µM |  |  |  |
| O=C(c1ccccc1)c1c(C(F)(F)F)n([O-])c2ccccc2[n+]1=O | > 100 µM |  | 1.41 µM | > 100 µM | 2.27 µM | 3.34 µM |  |  | 5.77 µM | 3.43 µM |  |  |  |
| COc1ccc(C(O)c2ccc3c(c2)OCO3)cc1 (stereo not given) |  |  | > 100 µM | > 100 µM | > 100 µM |  | > 100 µM | > 100 µM | > 100 µM |  |  |  |  |
| O=C1/C(=C/c2ccccc2)CCc2ccc(Cl)nc21 |  | 20.1 µM | 46.9 µM | > 63.7 µM | 20.2 µM | 7.88 µM | 38.4 µM | 27.4 µM | 15.4 µM | 37.8 µM |  |  |  |
| COC(=O)C1=C(O)C(C(=O)OC)[C@@]2(O)[C@@H](C(=O)OC)C(c3ccc(OC(=O)/C(=C/c4ccc(Cl)cc4)c4ccc(Cl)cc4)cc3)C[C@@H]1[C@@H]2C(=O)OC (stereo not given in full) | > 100 µM | > 100 µM | > 100 µM | > 100 µM | 34.1 µM |  | > 100 µM | > 100 µM | 24.6 µM | 38.2 µM |  |  |  |
| CN=C(Nn1cnnc1)OC | > 100 µM | > 100 µM | > 100 µM | > 100 µM | > 100 µM | > 100 µM | > 100 µM | > 100 µM |  | > 100 µM |  |  |  |
| Cc1nnc2cc(C(=O)O)c3ccccc3n2c1=O | > 10 µM | > 10 µM | > 10 µM | > 10 µM | > 10 µM | > 10 µM | > 10 µM |  | > 10 µM | > 10 µM |  |  |  |
| N#Cc1c(Nc2ccc(F)cc2)[n+]([O-])c2ccc(Cl)cc2[n+]1[O-] | > 100 µM | 23.1 µM | 13.3 µM | 5.37 µM | 42.1 µM | 9.97 µM | 35.9 µM |  | 7.31 µM | 77.9 µM |  |  |  |
| CN1CCn2c(Br)ccc2C1=O |  |  | > 100 µM |  | > 100 µM | > 100 µM | > 100 µM | > 100 µM | > 100 µM | > 100 µM |  |  |  |
| CCOc1ccc2[nH]c3c(C)c4cc[n+](C)cc4c(C)c3c2c1 |  | 4.37 µM and 4.31 µM | 22.5 µM and 51.7 µM |  | > 100 µM | > 86.8 µM | 43.9 µM and > 100 µM | > 100 µM | 1.63 µM and 2.65 µM | 2.53 µM and 8.79 µM |  |  | 6.04 µM and 17.5 µM |
| COC(=O)c1ccc(-c2nc(C#N)c(N)o2)cc1 | > 100 µM | > 100 µM | > 100 µM |  | > 100 µM | > 100 µM | > 100 µM | > 100 µM | > 100 µM | > 100 µM |  |  |  |
| CC(C)(CO)CNc1nc(N)nc(Cl)c1N | > 100 µM | > 100 µM | > 100 µM | > 100 µM | > 100 µM |  | > 100 µM | > 100 µM | > 100 µM | > 100 µM |  |  |  |
